Here are results for 1 compound from patent EP4729511A1, “COMPOUND OR SALT THEREOF AND METHOD FOR PRODUCING SAME, COMPOSITION, HYDROGEN PEROXIDE REMOVER, AND CYTOTOXICITY INHIBITOR” (Nagase & Co., Ltd., priority 2023, dated 2024).

Where only a bound is given, the exact number is not on record here.

A short description of data set [1]: Evaluation of hydrogen peroxide removal (OxiSelect hydrogen peroxide assay kit, ADHP/HRP fluorescence). Format: biochemical. The note with it: as the amount of Compound A increased (doubling dilutions from 10 µM); 4 µM hydrogen peroxide solution; 30 minutes at room temperature; control (Compound A: 0 µM) set as 100%. On the procedure:
The resulting Compound A (EGT-X) was subjected to several doubling dilutions from 10 µM with the buffer provided with a kit (OxiSelect hydrogen peroxide assay kit (manufactured by CELL BIOLABS, Inc.)), and 25 µL each of the resulting solutions was added to a 96 well plate. Also, a 4 µM solution in which hydrogen peroxide was diluted with the buffer provided with the kit was prepared, and 25 µL each of said solution was added to the 96 well plate. Further, a blank was prepared under the same conditions except for no hydrogen peroxide was added.
Subsequently, according to the protocol described in the kit, 50 µL each of a mixture of ADHP (10-acetyl-3,7-dihydroxyphenoxazine) and HRP(horseradish peroxidase) provided with the kit was added thereto, and the resulting mixture was stirred. After incubated at room temperature for 30 minutes, the fluorescence intensity was measured under the condition of excitation wavelength of 530 nm and fluorescence wavelength of 590 nm. The blank value was subtracted from each measurement value to calculate each value. The percentage values when EGT-X was added were calculated based on the control (Compound A: 0 µM) value set as 100%, and the results were plotted in a graph. (Figures 3 and 4).

Another data set concerns HEK293 cells. The data set can be described thus: Evaluation of cytotoxicity inhibition: hydrogen peroxide cytotoxicity against HEK293 cells in the presence of EGT-X (WST-1). The data set is classed as cell-based. To be noted: hydrogen peroxide 0.0015%, cultured 24 hours, WST-1 cell viability. The procedure:
After 24 hours, 50 µL each of EGT-X dissolved in a DMEM and hydrogen peroxide dissolved in a DMEM was added to the plate, so that the hydrogen peroxide concentration would be 0 for the control and 0.0015% for the others, and the EGT-X concentration would be those shown in Figures (Figures 5 and 6). […] The absorbance at 450 nm was measured.

Turning to `C[N+](C)(C)[C@@H](Cc1c[nH]c(Sc2[nH]c(=S)[nH]c2C[C@@H](C(=O)[O-])[N+](C)(C)C)n1)C(=O)[O-]` [Compound A], the “amount of the residual hydrogen peroxide” value in data set [1] is reported as “decreased”. The “concentration of EGT-X in the presence of which the cytotoxicity caused by hydrogen peroxide was inhibited” value with HEK293 cells is at least 125 µM.
